# Columns and labels:
# [1] = biological target: mutant cKIT (560-576 and V654A) in GIST430/654 cell line (Homo sapiens (Human), UniProt P10721, DEL560-576/V654A); experiment: Cellular testing of cKIT mutant inhibitors: phospho-Y307-cKIT Luminex assay in GIST430/654 cells; format: cell-based; settings: Table 1; cKIT autophosphorylation, compounds 45 min; read-out: GIST 430/654 IC50
# Procedure, shortened: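 Autophosphorylation of mutant cKIT at Y307 was quantified by a Luminex bead sandwich assay (total-cKIT capture, phosphospecific detection) after 45 min compound exposure in GIST430/654 cells, cultured in medium containing 100 nM imatinib. Signals were normalised to solvent (0.3% DMSO) controls and dose-response curves fitted for IC50.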
# [2] = biological target: c-Kit(V654A) (Homo sapiens, UniProt P10721, V654A); experiment: c-Kit(V654A) assay; format: biochemical; settings: Table 1; 200 μM ATP
# Procedure, shortened: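 Radiometric filter-binding read-out: after 3% phosphoric acid stop, peptide-incorporated 33P on filtermat scintillation-counted. Enzyme: human c-Kit V654A, residues 544–end, N-terminal GST fusion.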
# Sequence of mutant cKIT (560-576 and V654A) in GIST430/654 cell line (P10721 other isoform, or with tags, fused parts or gaps V654A/del 1-25/del 560-576 limits assumed): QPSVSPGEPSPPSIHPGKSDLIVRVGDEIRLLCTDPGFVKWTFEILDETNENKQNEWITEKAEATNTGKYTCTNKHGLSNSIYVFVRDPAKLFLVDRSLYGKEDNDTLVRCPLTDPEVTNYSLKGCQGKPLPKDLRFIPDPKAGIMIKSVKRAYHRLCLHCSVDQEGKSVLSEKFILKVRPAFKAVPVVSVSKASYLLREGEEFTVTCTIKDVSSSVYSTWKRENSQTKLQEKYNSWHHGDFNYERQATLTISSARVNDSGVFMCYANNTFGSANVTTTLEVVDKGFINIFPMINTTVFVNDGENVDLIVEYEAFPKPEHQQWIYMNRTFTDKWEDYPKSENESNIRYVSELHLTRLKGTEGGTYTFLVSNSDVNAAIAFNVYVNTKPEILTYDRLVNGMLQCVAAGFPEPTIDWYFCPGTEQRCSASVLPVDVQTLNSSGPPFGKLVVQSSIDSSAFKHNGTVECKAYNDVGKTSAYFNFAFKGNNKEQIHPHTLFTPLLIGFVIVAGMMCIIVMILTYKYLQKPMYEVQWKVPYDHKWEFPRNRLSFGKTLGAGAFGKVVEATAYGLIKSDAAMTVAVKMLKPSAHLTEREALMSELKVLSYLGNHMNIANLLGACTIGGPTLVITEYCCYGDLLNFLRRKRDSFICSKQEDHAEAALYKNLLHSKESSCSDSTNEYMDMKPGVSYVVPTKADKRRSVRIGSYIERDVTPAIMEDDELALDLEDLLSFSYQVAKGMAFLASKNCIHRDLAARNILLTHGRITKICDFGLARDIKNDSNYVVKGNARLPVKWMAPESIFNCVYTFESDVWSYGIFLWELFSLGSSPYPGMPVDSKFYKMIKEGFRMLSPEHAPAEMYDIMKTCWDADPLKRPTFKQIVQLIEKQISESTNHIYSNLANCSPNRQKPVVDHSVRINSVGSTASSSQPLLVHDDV
Structure (SMILES),IC50 [1],IC50 [2]
"COCCOc1cc2[nH]nc(-c3cc(-c4ccc(C(=O)N5CCN(C)CC5)cc4)on3)c2cc1F [A113, (4-{3-[5-fluoro-6-(2-methoxy-ethoxy)-1H-indazol-3-yl]-isoxazol-5-yl}-phenyl)-(4-methyl-piperazin-1-yl)-methanone]",0.082 µM,0.0026 µM
"O=C(c1ccc(-c2cc(-c3n[nH]c4cc(OCCO)c(F)cc34)on2)cc1)N1CCN(C2COC2)CC1 [A205, 2-{[5-fluoro-3-(3-{4-[4-(oxetan-3-yl)piperazine-1-carbonyl]phenyl}-1,2-oxazol-5-yl)-1H-indazol-6-yl]oxy}ethan-1-ol]",0.13 µM,0.023 µM
"COCCOc1cc2[nH]nc(-c3cc(-c4ccc(C(=O)N(C)C)cc4)no3)c2cc1F [A20, 4-{5-[5-fluoro-6-(2-methoxyethoxy)-1H-indazol-3-yl]-1,2-oxazol-3-yl}-N,N-dimethylbenzamide]",0.048 µM,0.0017 µM
"COCCOc1cc2[nH]nc(-c3cc(-c4ccc(C(=O)N5CC[C@H](F)C5)cc4)no3)c2cc1F [A32, 5-fluoro-3-(3-{4-[(3S)-3-fluoropyrrolidine-1-carbonyl]phenyl}-1,2-oxazol-5-yl)-6-(2-methoxyethoxy)-1H-indazole]",0.039 µM,0.00091 µM
"COCCOc1cc2[nH]nc(-c3cc(-c4ccc(C(=O)N5CC[C@H]6CNC(=O)[C@H]65)cc4)no3)c2cc1F (relative stereo) [A89, (cis)-1-(4-{5-[5-fluoro-6-(2-methoxyethoxy)-1H-indazol-3-yl]-1,2-oxazol-3-yl}benzoyl)-octahydropyrrolo[3,4-b]pyrrol-6-one]",0.32 µM,0.00057 µM
"COCCOc1cc2[nH]nc(-c3cc(-c4ccc(N5CCCN(C)CC5)cc4)no3)c2cc1F [A123, 5-fluoro-6-(2-methoxyethoxy)-3-{3-[4-(4-methyl-1,4-diazepan-1-yl)phenyl]-1,2-oxazol-5-yl}-1H-indazole]",0.038 µM,0.00039 µM
"COCCOc1cc2[nH]nc(-c3cc(-c4ccc(C(=O)N5CC(N6CCOCC6)C5)cc4)no3)c2cc1F [A53, 5-fluoro-6-(2-methoxyethoxy)-3-(3-{4-[3-(morpholin-4-yl)azetidine-1-carbonyl]phenyl}-1,2-oxazol-5-yl)-1H-indazole]",0.015 µM,0.0014 µM
"COCCOc1cc2[nH]nc(-c3cc(-c4ccc(C(=O)N5CCC[C@@H]5CNS(C)(=O)=O)cc4)no3)c2cc1F [A94, N-{[(2R)-1-(4-{5-[5-fluoro-6-(2-methoxyethoxy)-1H-indazol-3-yl]-1,2-oxazol-3-yl}benzoyl)pyrrolidin-2-yl]methyl}methanesulfonamide]",0.1 µM,0.00058 µM
"COCCOc1cc2[nH]nc(-c3cc(-c4ccc(N5CCOCC5)nc4)no3)c2cc1F [A141, 5-fluoro-6-(2-methoxyethoxy)-3-{3-[6-(morpholin-4-yl)pyridin-3-yl]-1,2-oxazol-5-yl}-1H-indazole]",0.22 µM,0.0077 µM
"COCCOc1cc2[nH]nc(-c3cc(-c4ccc(C(=O)N5CC[C@@H]5CS(C)(=O)=O)cc4)no3)c2cc1F [A154, 5-fluoro-3-(3-{4-[(2R)-2-(methanesulfonylmethyl)azetidine-1-carbonyl]phenyl}-1,2-oxazol-5-yl)-6-(2-methoxyethoxy)-1H-indazole]",0.11 µM,0.00089 µM
"COCCOc1cc2[nH]nc(-c3cc(-c4ccc(C(=O)N5CC(C)(O)C5)cc4)no3)c2cc1F [A34, 1-(4-{5-[5-fluoro-6-(2-methoxyethoxy)-1H-indazol-3-yl]-1,2-oxazol-3-yl}benzoyl)-3-methylazetidin-3-ol]",0.12 µM,0.00083 µM
"CCOc1cc2[nH]nc(-c3cc(-c4ccc(C(=O)N5CCN(C6COC6)CC5)cc4)no3)c2cc1F [A229, 6-ethoxy-5-fluoro-3-(3-{4-[4-(oxetan-3-yl)piperazine-1-carbonyl]phenyl}-1,2-oxazol-5-yl)-1H-indazole]",1.1 µM,0.047 µM

# Results, then the molecule that gave them:
IC50 [1],IC50 [2],Structure (SMILES)
0.041 µM,0.00097 µM,"COCCOc1cc2[nH]nc(-c3cc(-c4ccc(C(=O)N5CC[C@@H]5CO)cc4)no3)c2cc1F [A97, [(2R)-1-(4-{5-[5-fluoro-6-(2-methoxyethoxy)-1H-indazol-3-yl]-1,2-oxazol-3-yl}benzoyl)azetidin-2-yl]methanol]"
0.59 µM,0.038 µM,"COCCOc1cc2[nH]nc(-c3cc(-c4nc(C(=O)N5CC(F)C5)cs4)no3)c2cc1F [A87, 5-fluoro-3-{3-[4-(3-fluoroazetidine-1-carbonyl)-1,3-thiazol-2-yl]-1,2-oxazol-5-yl}-6-(2-methoxyethoxy)-1H-indazole]"
0.061 µM,0.0013 µM,"COCCOc1cc2[nH]nc(-c3cc(-c4ccc(C(=O)N5CC(OC)C5)cc4)no3)c2cc1F [A33, 5-fluoro-3-{3-[4-(3-methoxyazetidine-1-carbonyl)phenyl]-1,2-oxazol-5-yl}-6-(2-methoxyethoxy)-1H-indazole]"
0.3 µM,0.011 µM,"COCCOc1cc2[nH]nc(-c3cc(-c4ccc(C)nc4)no3)c2cc1Cl [A13, 5-chloro-6-(2-methoxyethoxy)-3-[3-(6-methylpyridin-3-yl)-1,2-oxazol-5-yl]-1H-indazole]"
0.024 µM,0.00037 µM,"COCCOc1cc2[nH]nc(-c3cc(-c4ccc(N5CC[S+]([O-])CC5)cc4)no3)c2cc1F [A127, 4-(4-{5-[5-fluoro-6-(2-methoxyethoxy)-1H-indazol-3-yl]-1,2-oxazol-3-yl}phenyl)-1lambda4-thiomorpholin-1-one]"
0.094 µM,0.0048 µM,"COCCOc1cc2[nH]nc(-c3cc(-c4ccc(S(C)(=O)=O)cc4)no3)c2cc1F [A16, 5-fluoro-3-[3-(4-methanesulfonylphenyl)-1,2-oxazol-5-yl]-6-(2-methoxyethoxy)-1H-indazole]"
0.074 µM,0.0004 µM,"COCCOc1cc2[nH]nc(-c3cc(-c4ccc(C(=O)N5CCN(C)CC5)cc4)no3)c2cc1Cl [A167, (4-{5-[5-chloro-6-(2-methoxy-ethoxy)-1H-indazol-3-yl]-isoxazol-3-yl}-phenyl)-(4-methyl-piperazin-1-yl)-methanone]"
0.06 µM,0.0016 µM,"COCCOc1cc2[nH]nc(-c3cc(-c4ccc(C(=O)N5CCOCC56COC6)cc4)no3)c2cc1F [A155, 5-(4-{5-[5-fluoro-6-(2-methoxyethoxy)-1H-indazol-3-yl]-1,2-oxazol-3-yl}benzoyl)-2,8-dioxa-5-azaspiro[3.5]nonane]"
0.041 µM,0.0011 µM,"COCCOc1cc2[nH]nc(-c3cc(-c4ccc(C(=O)N5CCCOCC5)cc4)no3)c2cc1F [A44, 5-fluoro-6-(2-methoxyethoxy)-3-{3-[4-(1,4-oxazepane-4-carbonyl)phenyl]-1,2-oxazol-5-yl}-1H-indazole]"
0.11 µM,0.0055 µM,"COc1cc2[nH]nc(-c3cc(-c4ccc(C(=O)N5CC(N6CCOCC6)C5)cc4)no3)c2cc1F [A61, 5-fluoro-6-methoxy-3-(3-{4-[3-(morpholin-4-yl)azetidine-1-carbonyl]phenyl}-1,2-oxazol-5-yl)-1H-indazole]"
0.17 µM,0.0024 µM,"COCCOc1cc2[nH]nc(-c3cc(-c4ccc(C(=O)N5CCN(C)C[C@@H]5C)cc4)on3)c2cc1C#N [A11, 3-(5-{4-[(2S)-2,4-dimethylpiperazine-1-carbonyl]phenyl}-1,2-oxazol-3-yl)-6-(2-methoxyethoxy)-1H-indazole-5-carbonitrile]"
0.17 µM,0.00073 µM,"COCCOc1cc2[nH]nc(-c3cc(-c4ccc(N5CCCNCC5)cc4)no3)c2cc1F [A42, 3-{3-[4-(1,4-diazepan-1-yl)phenyl]-1,2-oxazol-5-yl}-5-fluoro-6-(2-methoxyethoxy)-1H-indazole]"
0.044 µM,0.0012 µM,"COCCOc1cc2[nH]nc(-c3cc(-c4ccc(C(=O)N5CCC56COC6)c(C)c4)no3)c2cc1F [A169, (4-{5-[5-fluoro-6-(2-methoxy-ethoxy)-1H-indazol-3-yl]-isoxazol-3-yl}-2-methyl-phenyl)-(6-oxa-1-aza-spiro[3.3]hept-1-yl)-methanone]"
0.12 µM,0.0011 µM,"COCCOc1cc2[nH]nc(-c3cc(-c4ccc(C(=O)N5CCOC[C@@H]5CS(C)(=O)=O)cc4)no3)c2cc1F [A184, (4-{5-[5-fluoro-6-(2-methoxy-ethoxy)-1H-indazol-3-yl]-isoxazol-3-yl}-phenyl)-((R)-3-methanesulfonylmethyl-morpholin-4-yl)-methanone]"
0.066 µM,0.002 µM,"COCCOc1cc2[nH]nc(-c3cc(-c4ccc(C(=O)N5CCO[C@H](C)C5)cc4)no3)c2cc1F [A180, 5-fluoro-6-(2-methoxyethoxy)-3-(3-{4-[(2R)-2-methylmorpholine-4-carbonyl]phenyl}-1,2-oxazol-5-yl)-1H-indazole]"
0.05 µM,0.00076 µM,"COCCOc1cc2[nH]nc(-c3cc(-c4ccc(C(=O)N5CCOC[C@@H]5COC)cc4)no3)c2cc1F [A110, 5-fluoro-6-(2-methoxyethoxy)-3-(3-{4-[(3S)-3-(methoxymethyl)morpholine-4-carbonyl]phenyl}-1,2-oxazol-5-yl)-1H-indazole]"
0.16 µM,0.00091 µM,"COCCOc1cc2[nH]nc(-c3cc(-c4ccc(C(=O)N(C)C)cc4)no3)c2cc1Cl [A12, 4-{5-[5-chloro-6-(2-methoxyethoxy)-1H-indazol-3-yl]-1,2-oxazol-3-yl}-N,N-dimethylbenzamide]"
0.29 µM,0.0057 µM,"COCCOc1cc2[nH]nc(-c3cc(-c4ccc(C(=O)N5CCC[C@H]5CO)nc4)no3)c2cc1F [A63, (5-{5-[5-fluoro-6-(2-methoxy-ethoxy)-1H-indazol-3-yl]-isoxazol-3-yl}-pyridin-2-yl)-((S)-2-hydroxymethyl-pyrrolidin-1-yl)-methanone]"

# Reference: US20260042753A1 (Merck Patent GmbH, priority 2019, published 2026)
